Broadly, the melting point is the temperature, or range, at which the solid turns liquid. One may read the IC50 as the concentration at which inhibition is half-maximal. A low value points to inhibition by little substance.

The values below come from patent US8273773B2 (priority 2008, dated 2012).

For data set [1], the target named is T1, HCV polymerase (NS5B570n-Con1) (Hepatitis C virus genotype 1b, UniProt Q9WMX2).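 Also: recombinant His-tagged enzyme from E. coli, radiolabeled nucleotide incorporation into acid-insoluble RNA read by scintillation after filtration, no-enzyme background subtracted, activity relative to positive control.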
T1 construct: contains a 21 amino acid deletion at the C-terminus relative to the full-length HCV polymerase; 6-histidine (N); made in house; host or cells: E. coli strain BL21(DE) pLysS (pET17b)
The data set can be described thus: biochemical. More on the design: species or system HCV Con1 strain. As to conditions: IC50 HCV NS5B RNA Polymerase Assay, values without asterisk; 20 nM NS5B570n-Con1 enzyme, 20 nM cIRES RNA template.

Compound `COc1c(C(=O)c2ccnc(N)c2)cc(-c2ccc[nH]c2=O)cc1C(C)(C)C` [I-84, 3-[3-(2-Amino-pyridine-4-carbonyl)-5-tert-butyl-4-methoxy-phenyl]-1H-pyridin-2-one] came in with a melting point of 140 to 145 °C. The compound also displayed an IC50 in data set [1] of 0.032 µM.

In the case of `CNC(=O)Nc1ccc(CCc2cc(-c3ccc[nH]c3=O)cc(C(C)(C)C)c2)cc1` [I-86], the melting point lay in the range of 237 to 239 °C. This compound displayed an IC50 in data set [1] of 0.278 µM.

`CC(C)(C)c1cc(CCc2ccc(NS(C)(=O)=O)cc2)c(C#N)c(-c2ccc[nH]c2=O)c1` [I-87, N-(4-{2-[5-tert-butyl-2-cyano-3-(2-oxo-1,2-dihydro-pyridin-3-yl)-phenyl]-ethyl}-phenyl)-methanesulfonamide]: the melting point fell in the range of 128 to 130 °C. Moreover, the IC50 in data set [1] turned out to be 0.013 µM.

The compound `CC(C)(C)c1cc(CCc2ccc(NS(C)(=O)=O)cc2)cc(-c2cc(F)c[nH]c2=O)c1` [I-94] came in with a melting point of 191 to 193 °C. In data set [1], this compound had an IC50 of 0.01 µM.

Regarding `CC(C)(C)c1cc(CCc2ccc(NS(C)(=O)=O)cc2)c(N)c(-c2ccc[nH]c2=O)c1` [I-98, N-(4-{2-[2-Amino-5-tert-butyl-3-(2-oxo-1,2-dihydro-pyridin-3-yl)-phenyl]-ethyl}-phenyl)-methanesulfonamide], the melting point was in the range of 140 to 142 °C. In data set [1], it took 0.007 µM to reach half-maximal inhibition (IC50).

As to `COc1c(CCc2ccc(N)cc2)cc(-c2ccc[nH]c2=O)cc1C1(C)CC1` [I-99, 3-[3-[2-(4-amino-phenyl)-ethyl]-4-methoxy-5-(1-methyl-cyclopropyl)-phenyl]-1H-pyridin-2-one], the melting point lay within 209 to 211 °C. In data set [1], this compound had an IC50 of 0.59 µM.

`COc1c(C(=O)c2cccc(NS(C)(=O)=O)c2)cc(-c2ccc[nH]c2=O)cc1C(C)(C)C` [I-100, N-{3-[3-tert-Butyl-2-methoxy-5-(2-oxo-1,2-dihydro-pyridin-3-yl)-benzoyl]-phenyl}-methanesulfonamide] registered a melting point of 261 to 263 °C. The compound further displayed an IC50 in data set [1] of 0.016 µM.

The compound `COc1c(C(=O)NC2CCCCC2)cc(-c2ccc[nH]c2=O)cc1C(C)(C)C` [I-101] came in with a melting point of 136 to 138 °C. Further, in data set [1], the IC50 came out at 0.753 µM.

Compound `COc1c(CCc2ccc(NS(C)(=O)=O)cc2F)cc(-c2ccc[nH]c2=O)cc1C(C)(C)C` [I-102, N-(4-{2-[3-tert-Butyl-2-methoxy-5-(2-oxo-1,2-dihydro-pyridin-3-yl)-phenyl]-ethyl}-3-fluoro-phenyl)-methanesulfonamide] displayed a melting point of 120 to 122 °C. For the same compound, the IC50 in data set [1] worked out at 0.008 µM.

In turn, `COc1c(CCc2ccc(NS(C)(=O)=O)c(F)c2)cc(-c2ccc[nH]c2=O)cc1C(C)(C)C` [I-103] returned a melting point of 111 to 113 °C. Further, in data set [1], the IC50 was 0.008 µM.

In turn, `COc1c(C(=O)c2cccc(CN)c2)cc(-c2ccc[nH]c2=O)cc1C(C)(C)C` [I-106] gave a melting point of 110 to 115 °C. The compound also displayed a 50% inhibitory concentration (IC50) in data set [1] of 0.024 µM.

As to `CC(C)(C)c1cc(-c2ccc[nH]c2=O)cc(S(=O)(=O)c2ccccc2)c1` [I-107, 3-(3-Benzenesulfonyl-5-tert-butyl-phenyl)-1H-pyridin-2-one], the melting point was in the range of 252 to 253 °C. Further, the midpoint of inhibition in data set [1], the IC50, lay at 2.49 µM.

`COc1c(CCc2ccc(NS(C)(=O)=O)cc2)cc(-c2ccc[nH]c2=O)cc1C1(C)CC1` [I-108, N-(4-{2-[2-Methoxy-3-(1-methyl-cyclopropyl)-5-(2-oxo-1,2-dihydro-pyridin-3-yl)-phenyl]-ethyl}-phenyl)-methanesulfonamide]: the melting point was 192 to 194 °C. Further, in data set [1], the midpoint of inhibition, the IC50, lay at 0.006 µM.

On to `COc1c(CCc2ccc(NS(C)(=O)=O)cc2C)cc(-c2ccc[nH]c2=O)cc1C(C)(C)C` [I-109, N-(4-{2-[3-tert-Butyl-2-methoxy-5-(2-oxo-1,2-dihydro-pyridin-3-yl)-phenyl]-ethyl}-3-methyl-phenyl)-methanesulfonamide], for which the melting point is 240 to 242 °C. In data set [1], this compound yielded an IC50 of 0.007 µM.

In the case of `COc1c(CCc2ccc(NS(C)(=O)=O)c(C)c2)cc(-c2ccc[nH]c2=O)cc1C(C)(C)C` [I-110], the melting point lay in the range of 114 to 116 °C. Also, 0.016 µM corresponded to half-maximal inhibition in data set [1] (IC50).

Compound `COc1c(C(=O)Nc2cccc(CNS(C)(=O)=O)c2)cc(-c2ccc[nH]c2=O)cc1C(C)(C)C` [I-112, 3-tert-Butyl-N-[3-(methanesulfonylamino-methyl)-phenyl]-2-methoxy-5-(2-oxo-1,2-dihydro-pyridin-3-yl)-benzamide] displayed a melting point of 145 to 147 °C. In data set [1], this compound had a 50% inhibitory concentration (IC50) of 0.048 µM.

In turn, `CC(C)(C)c1cc(CCc2ccc(NS(C)(=O)=O)cn2)c(C#N)c(-c2ccc[nH]c2=O)c1` [I-114, N-(6-{2-[5-tert-Butyl-2-cyano-3-(2-oxo-1,2-dihydro-pyridin-3-yl)-phenyl]-ethyl}-pyridin-3-yl)-methanesulfonamide] returned a melting point of 143 to 145 °C. For the same compound, in data set [1], the IC50 was found to be 0.015 µM.

`CCOc1cc(NS(C)(=O)=O)ccc1C(=O)Nc1cc(-c2ccc[nH]c2=O)cc(C(C)(C)C)c1OC` [I-115] yielded a melting point of 290 to 292 °C. The compound further came in with an IC50 in data set [1] of 0.009 µM.

With `COc1c(NC(=O)c2ccc(NS(C)(=O)=O)cc2Cl)cc(-c2ccc[nH]c2=O)cc1C(C)(C)C` [I-116], the melting point was in the range of 263 to 265 °C. The same compound displayed an IC50 in data set [1] of 0.011 µM.

The compound `CC(C)(C)c1cc(CCc2ccc(NS(C)(=O)=O)cc2)c(OCCO)c(-c2ccc[nH]c2=O)c1` [I-118, N-(4-{2-[5-tert-Butyl-2-(2-hydroxy-ethoxy)-3-(2-oxo-1,2-dihydro-pyridin-3-yl)-phenyl]-ethyl}-phenyl)-methanesulfonamide] showed a melting point of 223 to 225 °C. The compound further returned an IC50 in data set [1] of 0.015 µM.

As for `COc1c(NC(=O)c2ccc(N)c(F)c2)cc(-c2ccc[nH]c2=O)cc1C(C)(C)C` [I-120], the melting point is 283 to 285 °C. Moreover, the half-maximal inhibitory concentration (IC50) in data set [1] worked out at 0.003 µM.

On to `COc1c(NC(=O)c2ccc(NS(C)(=O)=O)c(F)c2)cc(-c2ccc[nH]c2=O)cc1C(C)(C)C` [I-121], for which the melting point was 270 to 272 °C. Moreover, it took 0.007 µM to reach half-maximal inhibition in data set [1] (IC50).

On to `CC(C)(C)c1cc(CCc2ccc(NS(C)(=O)=O)cc2)c(C(N)=O)c(-c2ccc[nH]c2=O)c1` [I-122, 4-tert-Butyl-2-[2-(4-methanesulfonylamino-phenyl)-ethyl]-6-(2-oxo-1,2-dihydro-pyridin-3-yl)-benzamide], for which the melting point lay in the range of 170 to 172 °C. In addition, the IC50 in data set [1] is 0.003 µM.

In turn, `COc1c(CCc2ccc(NS(C)(=O)=O)nc2)cc(-c2ccc[nH]c2=O)cc1C(C)(C)C` [I-123] registered a melting point of 140 to 142 °C. In data set [1], this compound displayed a half-maximal inhibitory concentration (IC50) of 0.003 µM.

`COc1c(CCc2ccc(NS(C)(=O)=O)cn2)cc(-c2ccc[nH]c2=O)cc1C(C)(C)C` [I-124] showed a melting point of 131 to 133 °C. Besides, the IC50 in data set [1] is 0.003 µM.

The compound `COc1c(CCc2cnc(NS(C)(=O)=O)nc2)cc(-c2ccc[nH]c2=O)cc1C(C)(C)C` [I-125] showed a melting point of 282 to 283 °C. The IC50 in data set [1] worked out at 0.016 µM.

For `COc1c(CCc2ccc(NS(C)(=O)=O)nn2)cc(-c2ccc[nH]c2=O)cc1C(C)(C)C` [I-127], the melting point was 218 to 220 °C. Also, in data set [1], the half-maximal inhibitory concentration (IC50) was 0.004 µM.

Compound `COc1c(CCc2ccc(N)nn2)cc(-c2ccc[nH]c2=O)cc1C(C)(C)C` [I-128] showed a melting point of 142 to 144 °C. This compound also came in with an IC50 in data set [1] of 0.005 µM.
